Results: ChEMBL document CHEMBL5614424, “Natural Product-Inspired Discovery of Naphthoquinone-Furo-Piperidine Derivatives as Novel STAT3 Inhibitors for the Treatment of Triple-Negative Breast Cancer” (J Med Chem, 2024)
pIC50: −log10 of the molar value. Calls of active or inactive are those of the source. No cut-off for these calls is given here.

Tests used:
[1] = AUC(0 to infinity) in male rat at 10 mg/kg, ip measured upto 24 hrs by LC/MS/MS analysis; type: ADME, organism-based; details: in vivo
[2] = Half life in male rat at 5 mg/kg, iv measured upto 24 hrs by LC/MS/MS analysis; type: ADME, organism-based; details: in vivo
[3] = Half life in male rat at 10 mg/kg, ip measured upto 24 hrs by LC/MS/MS analysis; type: ADME, organism-based; details: in vivo
[4] = Cmax in male rat at 10 mg/kg, ip measured upto 24 hrs by LC/MS/MS analysis; type: ADME, organism-based; details: in vivo
[5] = Half life in male rat at 10 mg/kg, po measured upto 24 hrs by LC/MS/MS analysis; type: ADME, organism-based; details: in vivo
[6] = Tmax in male rat at 10 mg/kg, ip measured upto 24 hrs by LC/MS/MS analysis; type: ADME, organism-based; details: in vivo
[7] = tested on: MDA-MB-231; assay: Antiproliferative activity against human MDA-MB-231 cells assessed as cell viability incubated for 48 hrs measured after additional incubation with MTT; type: functional, cell-based; details: MDA-MB-231, 48 h
[8] = Tmax in male rat at 10 mg/kg, po measured upto 24 hrs by LC/MS/MS analysis; type: ADME, organism-based; details: in vivo
[9] = Antiproliferative activity against human MCF-10A cells assessed as cell viability incubated for 48 hrs measured after additional incubation with MTT; type: toxicity, cell-based
[10] = AUC(0 to t) in male rat at 5 mg/kg, iv measured upto 24 hrs by LC/MS/MS analysis; type: ADME, organism-based; details: in vivo
[11] = AUC(0 to t) in male rat at 10 mg/kg, po measured upto 24 hrs by LC/MS/MS analysis; type: ADME, organism-based; details: in vivo
[12] = Cmax in male rat at 5 mg/kg, iv measured upto 24 hrs by LC/MS/MS analysis; type: ADME, organism-based; details: in vivo
[13] = tested on: MDA-MB-468; assay: Antiproliferative activity against human MDA-MB-468 cells assessed as cell viability incubated for 48 hrs measured after additional incubation with MTT; type: functional, cell-based; details: MDA-MB-468, 48 h
[14] = tested on: L02; assay: Antiproliferative activity against human L02 cells assessed as cell viability incubated for 48 hrs measured after additional incubation with MTT; type: functional, cell-based; details: L02, 48 h
[15] = AUC(0 to infinity) in male rat at 10 mg/kg, po measured upto 24 hrs by LC/MS/MS analysis; type: ADME, organism-based; details: in vivo
[16] = Cmax in male rat at 10 mg/kg, po measured upto 24 hrs by LC/MS/MS analysis; type: ADME, organism-based; details: in vivo
[17] = AUC(0 to infinity) in male rat at 5 mg/kg, iv measured upto 24 hrs by LC/MS/MS analysis; type: ADME, organism-based; details: in vivo
[18] = AUC(0 to t) in male rat at 10 mg/kg, ip measured upto 24 hrs by LC/MS/MS analysis; type: ADME, organism-based; details: in vivo
[19] = molecular target: Signal transducer and activator of transcription 3 (Homo sapiens) (UniProt P40763); assay: Suppression of STAT3 activation in human MDA-MB-468 cell assessed as decrease in phosphorylated STAT3 (p-STAT3 Tyr705) level at 3 uM measured after 24 hrs by Western blot analysis; type: cell-based
Signal transducer and activator of transcription 3 (Homo sapiens), sequence (P40763 whole entry): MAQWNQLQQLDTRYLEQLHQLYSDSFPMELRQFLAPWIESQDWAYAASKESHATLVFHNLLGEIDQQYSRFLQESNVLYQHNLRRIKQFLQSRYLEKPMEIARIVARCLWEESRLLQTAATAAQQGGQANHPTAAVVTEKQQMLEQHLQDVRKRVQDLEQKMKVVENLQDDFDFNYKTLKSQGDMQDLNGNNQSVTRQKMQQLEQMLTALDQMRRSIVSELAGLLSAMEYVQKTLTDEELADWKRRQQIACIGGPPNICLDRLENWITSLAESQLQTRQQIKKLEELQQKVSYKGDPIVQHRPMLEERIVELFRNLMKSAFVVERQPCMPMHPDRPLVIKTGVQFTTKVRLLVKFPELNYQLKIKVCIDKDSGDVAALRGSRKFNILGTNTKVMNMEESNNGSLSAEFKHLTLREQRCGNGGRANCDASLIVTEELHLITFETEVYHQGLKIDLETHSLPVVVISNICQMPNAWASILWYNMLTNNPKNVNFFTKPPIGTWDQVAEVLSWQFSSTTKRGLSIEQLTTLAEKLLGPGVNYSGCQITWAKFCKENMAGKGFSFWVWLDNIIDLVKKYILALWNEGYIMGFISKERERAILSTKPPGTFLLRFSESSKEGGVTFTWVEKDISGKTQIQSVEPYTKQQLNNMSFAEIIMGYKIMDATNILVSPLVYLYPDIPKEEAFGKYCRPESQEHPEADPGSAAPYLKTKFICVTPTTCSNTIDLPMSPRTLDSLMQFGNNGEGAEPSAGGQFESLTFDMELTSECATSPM

[20] = Oral bioavailability in male rat at 10 mg/kg measured upto 24 hrs by LC/MS/MS analysis; type: ADME, organism-based; details: in vivo
[21] = Tmax in male rat at 5 mg/kg, iv measured upto 24 hrs by LC/MS/MS analysis; type: ADME, organism-based; details: in vivo
[22] = molecular target: Signal transducer and activator of transcription 3 (Homo sapiens) (UniProt P40763); assay: Suppression of STAT3 activation in human MDA-MB-231 cell assessed as decrease in phosphorylated STAT3 (p-STAT3 Tyr705) level at 3 uM measured after 24 hrs by Western blot analysis; type: cell-based
[23] = tested on: MDA-MB-468; assay: Induction of apoptosis in human MDA-MB-468 cells assessed as early apoptotic cells at 5 uM measured after 24 hrs incubation by the annexin V/propidium iodide (PI) double staining assay (reference value: 3.98%); type: functional
[24] = tested on: MDA-MB-231; assay: Induction of apoptosis in human MDA-MB-231 cells assessed as early apoptotic cells at 5 uM measured after 24 hrs incubation by the annexin V/propidium iodide (PI) double staining assay (reference value: 2.46%); type: functional
[25] = tested on: MDA-MB-468; assay: Induction of apoptosis in human MDA-MB-468 cells assessed as late apoptotic cells at 5 uM measured after 24 hrs incubation by the annexin V/propidium iodide (PI) double staining assay (reference value: 3.64%); type: functional
[26] = tested on: MDA-MB-231; assay: Induction of apoptosis in human MDA-MB-231 cells assessed as late apoptotic cells at 5 uM measured after 24 hrs incubation by the annexin V/propidium iodide (PI) double staining assay (reference value: 2.69%); type: functional

O=C1C(=O)c2c(oc3c2CCN(CCO)C3)-c2ccccc21
AUC(0-inf) [1]: 241 ng·h/mL | half-life [2]: 2.4 h | half-life [3]: 3.5 h | Cmax [4]: 107 ng/mL | half-life [5]: 4 h | Tmax [6]: 0.7 h | pIC50 [7]: 5.92 | Tmax [8]: 1.1 h | IC50 at 48 h [9]: 2.89 µM | AUC(0-t) at 24 h [10]: 611 ng·h/mL | AUC(0-t) at 24 h [11]: 47.2 ng·h/mL | Cmax [12]: 237 ng/mL | pIC50 [13]: 5.80 | pIC50 [14]: 5.41 | AUC(0-inf) [15]: 50.1 ng·h/mL | Cmax [16]: 34.4 ng/mL | AUC(0-inf) [17]: 645 ng·h/mL | AUC(0-t) at 24 h [18]: 219 ng·h/mL | inhibition [19]: Active | bioavailability [20]: 3.8% | Tmax [21]: 4.8 min | inhibition [22]: Active

CC(=O)c1cc2c(o1)C(=O)c1ccccc1C2=O [NAPABUCASIN]
Activity [23]: 6.32% | pIC50 [7]: 5.53 | IC50 at 48 h [9]: 7.94 µM | pIC50 [13]: 5.28 | Activity [24]: 4.76% | Activity [25]: 10% | Activity [26]: 12.07%
